Each structure is given as a SMILES string.

Holding throughout (details): in vivo
A short description of data set [1]: Volume of distribution in Swiss mouse at 5 mg/kg, po and 1 mg/kg, iv. In kind it is ADME, organism-based.
Data set [2] is described as follows: Oral bioavailability in Swiss mouse at 5 mg/kg. Type of data set: ADME, organism-based.
The nature of data set [3]: Oral bioavailability in Beagle dog at 5 mg/kg. In kind it is ADME, organism-based, Canis lupus familiaris.
Data set [4] is described as follows: Oral bioavailability in Sprague-Dawley rat at 10 mg/kg. In kind it is ADME, organism-based.
A short description of data set [5]: Volume of distribution in Sprague-Dawley rat at 10 mg/kg, po and 1 mg/kg, iv. Type of data set: ADME, organism-based.
Data set [6] can be described thus: Volume of distribution in Beagle dog at 5 mg/kg, po and 1 mg/kg, iv. Type of data set: ADME, organism-based, Canis lupus familiaris.

As for `COc1cc(C)c(S(=O)(=O)N(C)CCOCC(=O)N2CCN([C@@H]3CN4CCC3CC4)CC2)c(C)c1`, in data set [1], the Vd was 1 L/kg. Also, the bioavailability (as a rule, the share of a dose that reaches the circulation, judged against a reference dose that is usually intravenous) in data set [2] turned out to be 6.7%.
`COc1cc(C)c(S(=O)(=O)N(C)CCOCC(=O)N2CCN(C3CCN(C)CC3)CC2)c(C)c1`: the Vd was determined as 1.3 L/kg in data set [1], 1.5 L/kg in data set [5] and 2.7 L/kg in data set [6]. The bioavailability in data set [3] is 43%; in data set [2], 22%; in data set [4], 18%.
`CCN1CCC(N2CCN(C(=O)COCCN(C)S(=O)(=O)c3c(C)cc(OC)cc3C)CC2)CC1` registered a bioavailability in data set [4] of 12%. The same molecule gave a Vd in data set [5] of 3.8 L/kg.
The corresponding values for `COc1cc(C)c(S(=O)(=O)N(C)CCOCC(=O)N2CCN(CC3CCN(C)CC3)CC2)c(C)c1` are 16% and 3.5 L/kg.
In the same order, the values of `COc1cc(C)c(S(=O)(=O)N(C)CCOCC(=O)N2CCC(C(C)(C)CN(C)C)CC2)c(C)c1` are 3.8% and 0.5 L/kg.
As for `COc1cc(C)c(S(=O)(=O)N(C)CCOCC(=O)N2CCC(CCN(C)C)CC2)c(C)c1`, the Vd in data set [1] is 0.5 L/kg; in data set [5], 0.79 L/kg. Moreover, the bioavailability in data set [2] came out at 38%; in data set [4], 19%.
In data set [4], `COc1cc(C)c(S(=O)(=O)N(C)CCOCC(=O)N2CCC(N3CCN(C)CC3)CC2)c(C)c1` showed a bioavailability of 6%. The same molecule showed a Vd in data set [5] of 0.6 L/kg.
The corresponding values for `COc1cc(C)c(S(=O)(=O)N(C)CCOCC(=O)N2CCC(C3CCN(C)CC3)CC2)c(C)c1` are 12.3% and 0.6 L/kg.
`COc1cc(C)c(S(=O)(=O)N(C)CCOCC(=O)N(C)Cc2ccc(C3=NCCN3)cc2)c(C)c1` [SAFOTIBANT]: the Vd in data set [1] turned out to be 2.6 L/kg; in data set [5] it was 1.4 L/kg. The figures for the bioavailability in data set [2] and in data set [4] were 12% and 0.3%, respectively.

The record behind these values is ChEMBL document CHEMBL2086382, “From bradykinin B2 receptor antagonists to orally active and selective bradykinin B1 receptor antagonists” (J Med Chem, 2012).
